Data published in patent US5302587A, “Platinum (II) complex and agent for treating malignant tumor” (Toray Industries, Inc., priority 1989, dated 1994).

Key:
[1] = test system: mouse leukemia cells L1210; assay: Anti-tumor activity in L1210-transplanted mice (Reference Example 3, Table 4); assay type: in vivo; settings: 0.05% Tween 80, L1210-transplanted CDF1 mice
Procedure: The Samples A, B and C synthesized in Reference Examples 1 and 2 were evaluated for their anti-tumor activities by the following method:
In the abdominal cavities of CDFl mice (male, 6-week old, 6-10 mice/group), 105 mouse leukemia cells L1210 subcultured in DBA/2 mice were transplanted. Taking the day of transplantation as Day 0, the test drugs were separately administered intraperitoneally to the mice on Day 1, Day 5 and Day 9, totaling 3 times. Each drug was administered after dissolving or suspending it in 0.05% Tween 80 solution. The evaluation of the effectiveness was performed based on the T/C value which is obtained by the following equation as well as the number of survived mice on Day 30. [formula]

[2] = test system: Cisplatin-resistant mouse leukemia L1210/CDDP cells; assay: Anti-tumor activity in cisplatin-resistant L1210-transplanted mice (Table 2); assay type: in vivo; settings: L1210/CDDP-transplanted CDF1 mice
Procedure: In the abdominal cavities of CDFl mice (male, 6-week old, 5-10 mice/group, 105 mouse leukemia L1210 cells passaged in DBA/2 mice were transplanted. Defining the day of transplantation as Day 0, the compounds 1-5 of the present invention were separately administered intraperitoneally to mice on Day 1, Day 5 and Day 9, totaling 3 times. Each compound was administered after dissolving it in distilled water for injection. The evaluation of the anti-tumor activities of the platinum complexes against the L1210-transplanted mice was performed by T/C value which is obtained by the following equation: [formula]
In the abdominal cavities of CDFl mice (male, 6-week old, 5-10 mice/group), 105 Cisplatin-resistant mouse leukemia L1210/CDDP cells passaged in DBA/2 mice were transplanted. Defining the day of transplantation as Day 0, the compounds of the present invention and control drugs were separately administered intraperitoneally to mice on Day 1, Day 5 and Day 9, totaling 3 times.
The compounds of the present invention and carboplatin were administered after dissolving them in distilled water for injection and cisplatin was used after dissolving it in physiological saline for injection. The effectiveness of the compounds was evaluated by using the T/C value as in Example 7.

[3] = 10 mg/kg i.p. on Day 1, 5 and 9
[4] = 25 mg/kg i.p. on Day 1, 5 and 9
[5] = 50 mg/kg i.p. on Day 1, 5 and 9
[6] = 100 mg/kg i.p. on Day 1, 5 and 9
[7] = 200 mg/kg i.p. on Day 1, 5 and 9
[8] = 2.5 mg/kg i.p. on Day 1, 5 and 9
[9] = 7.5 mg/kg i.p. on Day 1, 5 and 9

CC(=O)[C-]1C(=O)CCOC1=O.CC(=O)[C-]1C(=O)CCOC1=O.N[C@@H]1CCCC[C@H]1N.O.[Pt+2] (relative stereo) [Sample C, [Pt(II)(trans-l-1,2-diaminocyclohexane)](3-acetyltetrahydropyran-2,4-dione)2.H2 O]
Number of Survived Mice (Day 30) ([1]; 1 mg/kg i.p. on Day 1, 5 and 9): 0/6
Survived Days (Mean ± Standard Deviation) ([1]; 1 mg/kg i.p. on Day 1, 5 and 9): 8.7 ± 0.8 days
T/C ([1]; 1 mg/kg i.p. on Day 1, 5 and 9): 104%
Number of Survived Mice (Day 30) [1, 3]: 0/6
Survived Days (Mean ± Standard Deviation) [1, 3]: 9.8 ± 1.6 days
T/C [1, 3]: 117%
Number of Survived Mice (Day 30) [1, 4]: 0/6
Survived Days (Mean ± Standard Deviation) [1, 4]: 9.5 ± 0.5 days
T/C [1, 4]: 113%
Number of Survived Mice (Day 30) [1, 5]: 0/6
Survived Days (Mean ± Standard Deviation) [1, 5]: 8.7 ± 2.2 days
T/C [1, 5]: 104%
Number of Survived Mice (Day 30) [1, 6]: 0/6
Survived Days (Mean ± Standard Deviation) [1, 6]: 8.3 ± 0.8 days
T/C [1, 6]: 99%
Number of Survived Mice (Day 30) [1, 7]: 0/6
Survived Days (Mean ± Standard Deviation) [1, 7]: 6.2 ± 1.5 days
T/C [1, 7]: 74%

CC(=O)[C-]1C(=O)CC(C)OC1=O.CC(=O)[C-]1C(=O)CC(C)OC1=O.N[C@@H]1CCCC[C@H]1N.O.[Pt+2] (relative stereo) [Sample A, [Pt(II)(trans-l-1,2-diaminocyclohexane)](3-acetyl-6-methyltetrahydropyran-2,4-dione)2.H2 O]
Number of Survived Mice (Day 30) ([1]; 1 mg/kg i.p. on Day 1, 5 and 9): 0/6
Number of Survived Mice (Day 30) [1, 3]: 0/6
Survived Days (Mean ± Standard Deviation) [1, 3]: 11.5 ± 1.2 days
T/C [1, 3]: 137%
Number of Survived Mice (Day 30) [1, 4]: 0/6
Survived Days (Mean ± Standard Deviation) [1, 4]: 14.2 ± 3.2 days
T/C [1, 4]: 169%
Number of Survived Mice (Day 30) [1, 5]: 0/6
Survived Days (Mean ± Standard Deviation) [1, 5]: 17.0 ± 3.0 days
T/C [1, 5]: 202%
Number of Survived Mice (Day 30) [1, 6]: 0/6
Survived Days (Mean ± Standard Deviation) [1, 6]: 15.5 ± 5.0 days
T/C [1, 6]: 185%
Number of Survived Mice (Day 30) [1, 7]: 0/6
Survived Days (Mean ± Standard Deviation) [1, 7]: 6.0 days
T/C [1, 7]: 71%

N.N.O=C([O-])C1(C(=O)[O-])CCC1.[Pt+2] [Carboplatin]
Number of Survived Mice (Day 30) [2, 4]: 0/6
Survived Days (Mean ± Standard Deviation) [2, 4]: 9.0 ± 1.1 days
T/C [2, 4]: 99%
Number of Survived Mice (Day 30) [2, 5]: 0/6
Survived Days (Mean ± Standard Deviation) [2, 5]: 9.7 ± 0.8 days
T/C [2, 5]: 107%
Number of Survived Mice (Day 30) [2, 6]: 0/6
Survived Days (Mean ± Standard Deviation) [2, 6]: 9.3 ± 0.8 days
T/C [2, 6]: 102%
Number of Survived Mice (Day 30) [2, 7]: 0/6
Survived Days (Mean ± Standard Deviation) [2, 7]: 7.3 ± 1.5 days
T/C [2, 7]: 80%

CC(=O)[C-]1C(=O)CC(C)OC1=O.CC(=O)[C-]1C(=O)CC(C)OC1=O.N[C@@H]1CCCC[C@H]1N.O.[Pt+2] (relative stereo) [Sample B, [Pt(II)(trans-l-1,2-diaminocyclohexane)](3-acetyl-6-methyltetrahydropyran-2,4-dione)2.H2 O]
Number of Survived Mice (Day 30) [1, 4]: 0/6
Survived Days (Mean ± Standard Deviation) [1, 4]: 8.5 ± 0.5 days
T/C [1, 4]: 101%
Number of Survived Mice (Day 30) [1, 5]: 0/6
Survived Days (Mean ± Standard Deviation) [1, 5]: 8.8 ± 0.8 days
T/C [1, 5]: 105%
Number of Survived Mice (Day 30) [1, 6]: 0/6
Survived Days (Mean ± Standard Deviation) [1, 6]: 9.2 ± 1.5 days
T/C [1, 6]: 110%
Number of Survived Mice (Day 30) [1, 7]: 0/6
Survived Days (Mean ± Standard Deviation) [1, 7]: 9.5 ± 2.3 days
T/C [1, 7]: 113%

N.N.[Cl][Pt][Cl] [Cisplatin]
Number of Survived Mice (Day 30) [1, 8]: 0/6
Survived Days (Mean ± Standard Deviation) [1, 8]: 13.0 ± 2.3 days
T/C [1, 8]: 155%
Number of Survived Mice (Day 30) ([1]; 5 mg/kg i.p. on Day 1, 5 and 9): 0/5
Survived Days (Mean ± Standard Deviation) ([1]; 5 mg/kg i.p. on Day 1, 5 and 9): 13.8 ± 1.1 days
T/C ([1]; 5 mg/kg i.p. on Day 1, 5 and 9): 164%
Number of Survived Mice (Day 30) [1, 9]: 0/6
Survived Days (Mean ± Standard Deviation) [1, 9]: 18.3 ± 6.2 days
T/C [1, 9]: 218%
Number of Survived Mice (Day 30) [2, 8]: 0/6
Survived Days (Mean ± Standard Deviation) [2, 8]: 9.3 ± 1.0 days
T/C [2, 8]: 102%
Number of Survived Mice (Day 30) ([2]; 5 mg/kg i.p. on Day 1, 5 and 9): 0/6
Survived Days (Mean ± Standard Deviation) ([2]; 5 mg/kg i.p. on Day 1, 5 and 9): 8.3 ± 0.5 days
T/C ([2]; 5 mg/kg i.p. on Day 1, 5 and 9): 91%
Number of Survived Mice (Day 30) [2, 3]: 0/6
Survived Days (Mean ± Standard Deviation) [2, 3]: 8.7 ± 0.8 days
T/C [2, 3]: 96%
Number of Survived Mice (Day 30) [2, 4]: 0/6
Survived Days (Mean ± Standard Deviation) [2, 4]: 7.2 ± 1.6 days
T/C [2, 4]: 79%
